Laboratory results as given in publication PMC10463010 (RSC Advances, 2023).

What was measured:
[1] = Cytotoxic effect on RAW 264.7 using MTT assay; assay type: cell-based; conditions: mouse, RAW 264.7 cells
[2] = test system: NO production in RAW264.7 stimulated by LPS; assay: NO production in LPS-stimulated RAW 264.7; assay type: cell-based; conditions: Mus musculus, RAW264.7, read-out: % inhibition of NO production
[3] = target: acetylcholinesterase (AChE) (Homo sapiens, UniProt P22303); assay: Acetylcholinesterase inhibition assay; assay type: biochemical
IL-1β = IL-1β level in LPS-induced RAW 264.7; assay type: cell-based; conditions: RAW 264.7, in comparison to LPS treated cells
IL-6 = IL-6 level in LPS-induced RAW 264.7; assay type: cell-based
[4] = In vitro hydrolysis / chemical stability in buffers; assay type: physicochemical; conditions: 0.1 M HCl (simulated gastric conditions), pH 1.4
TNF-α = TNF-α level in LPS-induced RAW 264.7; assay type: cell-based; conditions: RAW 264.7, in comparison to LPS treated cells
SK-N-SH Cells = conditions: Aβ-induced SK-N-SH cells, increased from 20%; cited from earlier work
TNF = conditions: 20 μM, LPS stimulated RAW264.7; cited from earlier work

acetylcholinesterase (AChE), sequence (P22303 32-614, species assumed): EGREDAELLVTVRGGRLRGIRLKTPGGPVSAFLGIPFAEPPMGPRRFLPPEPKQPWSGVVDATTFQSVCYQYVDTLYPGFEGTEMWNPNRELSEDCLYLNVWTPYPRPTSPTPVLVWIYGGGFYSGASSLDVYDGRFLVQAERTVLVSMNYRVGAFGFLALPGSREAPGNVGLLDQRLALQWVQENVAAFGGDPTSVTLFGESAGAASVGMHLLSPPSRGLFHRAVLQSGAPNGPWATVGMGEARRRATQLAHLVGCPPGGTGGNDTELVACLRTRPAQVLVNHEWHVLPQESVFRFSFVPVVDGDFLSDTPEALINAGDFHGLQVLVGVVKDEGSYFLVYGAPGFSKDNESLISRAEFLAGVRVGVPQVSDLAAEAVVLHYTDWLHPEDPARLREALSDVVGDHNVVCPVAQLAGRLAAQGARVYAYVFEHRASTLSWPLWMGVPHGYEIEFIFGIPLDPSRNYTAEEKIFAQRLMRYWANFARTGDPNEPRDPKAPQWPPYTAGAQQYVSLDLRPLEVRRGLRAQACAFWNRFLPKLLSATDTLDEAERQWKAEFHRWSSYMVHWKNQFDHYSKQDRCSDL

SMILES | viability at 24 h, 50 µM [1] | inhibition at 25 µM [2] | other results
Cc1ccc(C(C)C)c(OC(=O)Cn2cc(COC(=O)Cn3cnc4c3c(=O)n(C)c(=O)n4C)nn2)c1 [15b, (1-(2-(2-Isopropyl-5-methylphenoxy)-2-oxoethyl)-1H-1,2,3-triazol-4-yl)methyl-2-(1,3-dimethyl-2,6-dioxo-1,2,3,6-tetrahydro-7H-purin-7-yl)acetate] | 97 ± 0.6% | 68.6 ± 0.92% | 
Cn1c(=O)c2c(ncn2CC(=O)OCc2cn(-c3cc(=O)oc4ccccc34)nn2)n(C)c1=O [15c, (1-(2-Oxo-2H-chromen-4-yl)-1H-1,2,3-triazol-4-yl)methyl-2-(1,3-dimethyl-2,6-dioxo-1,2,3,6-tetrahydro-7H-purin-7-yl)acetate] | 88 ± 0.8% | 85 ± 0.88% | IC50 [3]: 9.8 ± 0.7 µM
Cn1c(=O)c2c(ncn2CC(=O)N/N=C/c2ccccc2)n(C)c1=O [18a, E-N′-Benzylidene-2-(1,3-dimethyl-2,6-dioxo-1,2,3,6-tetrahydro-7H-purin-7-yl)acetohydrazide] | 94 ± 0.2% | 65.4 ± 0.84% | 
Cn1c(=O)c2c(ncn2CC(=O)N/N=C/c2ccc(O)cc2)n(C)c1=O [18b, (E)-2-(1,3-Dimethyl-2,6-dioxo-1,2,3,6-tetrahydro-7H-purin-7-yl)-N′-(4-hydroxybenzylidene)acetohydrazide] | 87 ± 0.8% | 71.8 ± 0.9% | 
COc1ccc(OC)c(/C=N/NC(=O)Cn2cnc3c2c(=O)n(C)c(=O)n3C)c1 [18c, E-N′-(2,5-Dimethoxybenzylidene)-2-(1,3-dimethyl-2,6-dioxo-1,2,3,6-tetrahydro-7H-purin-7-yl)acetohydrazide] | 88 ± 0.8% | 75 ± 0.88% | 
COc1ccc(/C=N/NC(=O)Cn2cnc3c2c(=O)n(C)c(=O)n3C)cc1OC [18d, E-N′-(3,4-Dimethoxybenzylidene)-2-(1,3-dimethyl-2,6-dioxo-1,2,3,6-tetrahydro-7H-purin-7-yl)acetohydrazide] | 90 ± 1% | 70.7 ± 0.87% | 
COc1cc(/C=N/NC(=O)Cn2cnc3c2c(=O)n(C)c(=O)n3C)cc(OC)c1OC [18e, (E)-2-(1,3-Dimethyl-2,6-dioxo-1,2,3,6-tetrahydro-7H-purin-7-yl)-N′-(3,4,5-trimethoxybenzylidene)acetohydrazide] | 92 ± 1% | 71.8 ± 0.9% | 
COc1cccc(/C=N/NC(=O)Cn2cnc3c2c(=O)n(C)c(=O)n3C)c1 [18f, (E)-2-(1,3-Dimethyl-2,6-dioxo-1,2,3,6-tetrahydro-7H-purin-7-yl)-N′-(3-methoxybenzylidene)acetohydrazide] | 91 ± 1% | 63.2 ± 0.93% | 
Cn1c(=O)c2c(ncn2CC(=O)N/N=C/c2ccccc2O)n(C)c1=O [18g, (E)-2-(1,3-Dimethyl-2,6-dioxo-1,2,3,6-tetrahydro-7H-purin-7-yl)-N′-(2-hydroxybenzylidene)acetohydrazide] | 92 ± 1% | 66.4 ± 0.79% | 
Cn1c(=O)c2c(ncn2CC(=O)N/N=C/c2ccc3c(c2)OCO3)n(C)c1=O [18h, (E)-N′-(Benzo[d][1,3]dioxol-5-ylmethylene)-2-(1,3-dimethyl-2,6-dioxo-1,2,3,6-tetrahydro-7H-purin-7-yl)acetohydrazide] | 93 ± 1% | 96.6 ± 0.87% | 
COc1ccc(/C=N/NC(=O)Cn2cnc3c2c(=O)n(C)c(=O)n3C)cc1O [18i, (E)-2-(1,3-Dimethyl-2,6-dioxo-1,2,3,6-tetrahydro-7H-purin-7-yl)-N′-(3-hydroxy-4-methoxybenzylidene)acetohydrazide] | 105 ± 1.2% | 63.2 ± 0.93% | 
COc1cc(/C=N/NC(=O)Cn2cnc3c2c(=O)n(C)c(=O)n3C)ccc1O [18j, (E)-2-(1,3-Dimethyl-2,6-dioxo-1,2,3,6-tetrahydro-7H-purin-7-yl)-N′-(4-hydroxy-3-methoxybenzylidene)acetohydrazide] | 89 ± 1% | 92.2 ± 0.86% | IC50 [3]: 14.6 ± 0.5 µM
COc1ccc(/C=N/NC(=O)Cn2cnc3c2c(=O)n(C)c(=O)n3C)cc1 [18l, (E)-2-(1,3-Dimethyl-2,6-dioxo-1,2,3,6-tetrahydro-7H-purin-7-yl)-N′-(4-methoxybenzylidene)acetohydrazide] | 93 ± 1% | 85.4 ± 0.87% | 
COC(=O)[C@@H](N)CCCNC(N)=N[N+](=O)[O-] [L-NAME, L-NG-nitro arginine methyl ester, reference compound] |  |  | inhibition at 250 µM [2]: 84.8 ± 0.9%
Cn1c(=O)c2c(ncn2CC(=O)O)n(C)c1=O [compound 2, theophylline-7-acetic acid, reference compound] | 85 ± 1.7% | 58.7 ± 1.82% | 
Cn1c(=O)c2c(ncn2CC(=O)N/N=C2/C(=O)Nc3ccccc32)n(C)c1=O [compound 19, (E)-2-(1,3-Dimethyl-2,6-dioxo-1,2,3,6-tetrahydro-7H-purin-7-yl)-N′-(2-oxoindolin-3-ylidene)acetohydrazide] | 89.5 ± 1.1% | 90 ± 0.88% | Reduction of IL-1β (IL-1β; 1 μM): 49.4%; Downregulation of IL-1β (IL-1β; 10 μM): 66.7%; IC50 [3]: 3.3 ± 0.2 µM; Decrease of IL-6 levels (IL-6; 1 μM, RAW 264.7, in comparison to cells induced by LPS): 47.5%; Decrease of IL-6 levels (IL-6; 10 μM, RAW 264.7, in comparison to LPS treated cells): 57.7%; half-life at 75 μM [4]: 1.8 h; Reduction of TNF-α (TNF-α; 1 μM): 31.8%; Reduction of TNF-α (TNF-α; 10 μM): 53%
NC(=S)NN=C1C(=O)Nc2ccccc21 [isatin thiosemicarbazone] |  |  | Survival rate (SK-N-SH Cells): approximately 100%
Cn1c(=O)c2[nH]cnc2n(C)c1=O [theophylline] |  |  | Effect on TNF production (TNF): suppress TNF production
